Consider two compounds from ChEMBL document CHEMBL5252509, “In depth analysis of kinase cross screening data to identify chemical starting points for inhibition of the Nek family of kinases” (Medchemcomm, 2018).

The target of assay [1] is Serine/threonine-protein kinase Nek4 (Homo sapiens) (UniProt P51957). Description: Inhibition of NEK4 (unknown origin) at 100 nM relative to control.
Assay [2] deals with Fibroblast growth factor receptor 3 (Homo sapiens) (UniProt P22607). Description: Inhibition of FGFR3 (unknown origin) at 1 uM relative to control.
Sequence of Fibroblast growth factor receptor 3 (Homo sapiens) (P22607 23-806 limits assumed): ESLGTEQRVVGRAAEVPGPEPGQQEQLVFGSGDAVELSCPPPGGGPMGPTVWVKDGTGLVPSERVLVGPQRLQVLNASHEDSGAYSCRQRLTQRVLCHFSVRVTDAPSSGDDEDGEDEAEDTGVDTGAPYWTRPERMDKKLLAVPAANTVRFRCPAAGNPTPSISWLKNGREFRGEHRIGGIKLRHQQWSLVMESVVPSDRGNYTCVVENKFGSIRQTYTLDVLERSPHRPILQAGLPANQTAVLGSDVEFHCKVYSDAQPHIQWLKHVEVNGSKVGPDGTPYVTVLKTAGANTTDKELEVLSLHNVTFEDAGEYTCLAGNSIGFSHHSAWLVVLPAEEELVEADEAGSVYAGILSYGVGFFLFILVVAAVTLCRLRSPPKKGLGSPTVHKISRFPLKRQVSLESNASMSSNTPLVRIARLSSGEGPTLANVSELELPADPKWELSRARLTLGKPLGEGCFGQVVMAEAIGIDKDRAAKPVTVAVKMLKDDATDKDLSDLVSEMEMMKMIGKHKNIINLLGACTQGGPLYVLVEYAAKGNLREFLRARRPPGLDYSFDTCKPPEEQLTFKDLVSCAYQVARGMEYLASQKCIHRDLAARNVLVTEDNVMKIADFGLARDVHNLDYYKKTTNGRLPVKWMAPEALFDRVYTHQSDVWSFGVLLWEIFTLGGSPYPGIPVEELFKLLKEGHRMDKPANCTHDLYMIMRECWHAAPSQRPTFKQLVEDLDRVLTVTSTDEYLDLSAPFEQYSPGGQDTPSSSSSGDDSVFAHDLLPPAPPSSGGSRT
Assay [3] deals with Angiopoietin-1 receptor (Homo sapiens) (UniProt Q02763). Description: Inhibition of TIE2 (unknown origin) at 1 uM relative to control.
Sequence of Angiopoietin-1 receptor (Homo sapiens) (Q02763 whole entry): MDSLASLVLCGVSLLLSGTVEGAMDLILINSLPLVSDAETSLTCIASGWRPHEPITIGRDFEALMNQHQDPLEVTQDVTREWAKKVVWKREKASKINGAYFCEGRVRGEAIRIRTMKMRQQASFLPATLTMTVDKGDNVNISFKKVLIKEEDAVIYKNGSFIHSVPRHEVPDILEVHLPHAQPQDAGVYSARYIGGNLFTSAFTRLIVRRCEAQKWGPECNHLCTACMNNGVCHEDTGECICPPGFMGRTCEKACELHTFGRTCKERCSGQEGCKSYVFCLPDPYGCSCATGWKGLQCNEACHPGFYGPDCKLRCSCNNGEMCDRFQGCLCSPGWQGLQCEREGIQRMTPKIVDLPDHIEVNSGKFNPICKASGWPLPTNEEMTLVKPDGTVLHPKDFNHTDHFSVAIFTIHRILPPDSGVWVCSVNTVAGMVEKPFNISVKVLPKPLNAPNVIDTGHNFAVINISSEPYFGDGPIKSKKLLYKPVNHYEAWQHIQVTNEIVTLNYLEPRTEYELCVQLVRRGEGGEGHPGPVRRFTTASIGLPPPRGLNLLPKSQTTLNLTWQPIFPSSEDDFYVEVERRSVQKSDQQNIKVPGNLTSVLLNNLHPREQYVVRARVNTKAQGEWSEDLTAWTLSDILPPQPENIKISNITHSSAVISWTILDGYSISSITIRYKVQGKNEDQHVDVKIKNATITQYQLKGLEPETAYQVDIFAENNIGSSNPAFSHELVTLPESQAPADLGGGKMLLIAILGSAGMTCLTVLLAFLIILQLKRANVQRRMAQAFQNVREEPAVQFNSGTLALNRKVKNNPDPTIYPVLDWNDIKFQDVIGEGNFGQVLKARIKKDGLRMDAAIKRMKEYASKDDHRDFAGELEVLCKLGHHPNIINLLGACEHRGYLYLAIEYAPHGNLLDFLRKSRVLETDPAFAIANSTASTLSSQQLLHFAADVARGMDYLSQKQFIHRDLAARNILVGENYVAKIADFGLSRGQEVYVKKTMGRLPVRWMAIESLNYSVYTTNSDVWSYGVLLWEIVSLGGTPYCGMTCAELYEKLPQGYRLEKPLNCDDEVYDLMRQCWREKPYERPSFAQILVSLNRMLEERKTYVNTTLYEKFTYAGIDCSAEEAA
For assay [4], the target named is T1, Mitogen-activated protein kinase kinase kinase 19 (Homo sapiens) (UniProt Q56UN5).
T1 sequence (whole entry): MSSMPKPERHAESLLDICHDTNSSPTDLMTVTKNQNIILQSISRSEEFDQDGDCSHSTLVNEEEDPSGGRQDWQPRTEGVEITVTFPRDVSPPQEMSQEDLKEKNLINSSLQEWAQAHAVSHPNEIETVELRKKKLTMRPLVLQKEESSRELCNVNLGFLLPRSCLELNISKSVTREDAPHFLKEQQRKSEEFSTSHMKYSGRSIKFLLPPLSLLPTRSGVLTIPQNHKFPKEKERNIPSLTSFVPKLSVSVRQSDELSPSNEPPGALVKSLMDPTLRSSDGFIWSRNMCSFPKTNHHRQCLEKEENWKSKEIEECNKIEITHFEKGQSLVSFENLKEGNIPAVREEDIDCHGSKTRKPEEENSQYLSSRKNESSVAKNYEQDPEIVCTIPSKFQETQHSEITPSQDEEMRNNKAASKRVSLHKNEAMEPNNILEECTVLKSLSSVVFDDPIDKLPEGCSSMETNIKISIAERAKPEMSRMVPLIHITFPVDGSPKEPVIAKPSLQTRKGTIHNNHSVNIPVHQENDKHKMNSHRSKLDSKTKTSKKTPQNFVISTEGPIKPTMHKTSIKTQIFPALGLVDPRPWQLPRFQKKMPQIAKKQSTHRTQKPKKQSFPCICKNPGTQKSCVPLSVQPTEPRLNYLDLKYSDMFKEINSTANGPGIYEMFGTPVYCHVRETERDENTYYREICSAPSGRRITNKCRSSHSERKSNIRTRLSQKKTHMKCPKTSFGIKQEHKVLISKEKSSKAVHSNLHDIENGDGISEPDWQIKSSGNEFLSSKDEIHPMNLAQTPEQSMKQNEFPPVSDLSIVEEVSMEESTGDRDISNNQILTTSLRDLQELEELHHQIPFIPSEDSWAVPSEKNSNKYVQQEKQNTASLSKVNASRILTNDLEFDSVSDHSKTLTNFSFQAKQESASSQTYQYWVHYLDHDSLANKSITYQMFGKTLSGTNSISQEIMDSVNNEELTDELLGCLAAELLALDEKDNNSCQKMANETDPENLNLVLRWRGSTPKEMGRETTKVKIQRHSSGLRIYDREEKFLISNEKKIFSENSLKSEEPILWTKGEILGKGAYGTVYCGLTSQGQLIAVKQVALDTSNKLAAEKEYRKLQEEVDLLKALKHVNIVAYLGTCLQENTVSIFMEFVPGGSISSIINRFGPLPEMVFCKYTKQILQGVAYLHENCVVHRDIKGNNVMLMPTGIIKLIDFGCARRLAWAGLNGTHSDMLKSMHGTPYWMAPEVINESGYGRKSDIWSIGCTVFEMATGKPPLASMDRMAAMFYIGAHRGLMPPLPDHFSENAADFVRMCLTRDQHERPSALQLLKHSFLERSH
Description: Inhibition of YSK4 (unknown origin) at 1 uM relative to control.

Assay [5] deals with T2, Serine/threonine-protein kinase Nek10 (Homo sapiens) (UniProt Q6ZWH5).
T2 sequence (whole entry): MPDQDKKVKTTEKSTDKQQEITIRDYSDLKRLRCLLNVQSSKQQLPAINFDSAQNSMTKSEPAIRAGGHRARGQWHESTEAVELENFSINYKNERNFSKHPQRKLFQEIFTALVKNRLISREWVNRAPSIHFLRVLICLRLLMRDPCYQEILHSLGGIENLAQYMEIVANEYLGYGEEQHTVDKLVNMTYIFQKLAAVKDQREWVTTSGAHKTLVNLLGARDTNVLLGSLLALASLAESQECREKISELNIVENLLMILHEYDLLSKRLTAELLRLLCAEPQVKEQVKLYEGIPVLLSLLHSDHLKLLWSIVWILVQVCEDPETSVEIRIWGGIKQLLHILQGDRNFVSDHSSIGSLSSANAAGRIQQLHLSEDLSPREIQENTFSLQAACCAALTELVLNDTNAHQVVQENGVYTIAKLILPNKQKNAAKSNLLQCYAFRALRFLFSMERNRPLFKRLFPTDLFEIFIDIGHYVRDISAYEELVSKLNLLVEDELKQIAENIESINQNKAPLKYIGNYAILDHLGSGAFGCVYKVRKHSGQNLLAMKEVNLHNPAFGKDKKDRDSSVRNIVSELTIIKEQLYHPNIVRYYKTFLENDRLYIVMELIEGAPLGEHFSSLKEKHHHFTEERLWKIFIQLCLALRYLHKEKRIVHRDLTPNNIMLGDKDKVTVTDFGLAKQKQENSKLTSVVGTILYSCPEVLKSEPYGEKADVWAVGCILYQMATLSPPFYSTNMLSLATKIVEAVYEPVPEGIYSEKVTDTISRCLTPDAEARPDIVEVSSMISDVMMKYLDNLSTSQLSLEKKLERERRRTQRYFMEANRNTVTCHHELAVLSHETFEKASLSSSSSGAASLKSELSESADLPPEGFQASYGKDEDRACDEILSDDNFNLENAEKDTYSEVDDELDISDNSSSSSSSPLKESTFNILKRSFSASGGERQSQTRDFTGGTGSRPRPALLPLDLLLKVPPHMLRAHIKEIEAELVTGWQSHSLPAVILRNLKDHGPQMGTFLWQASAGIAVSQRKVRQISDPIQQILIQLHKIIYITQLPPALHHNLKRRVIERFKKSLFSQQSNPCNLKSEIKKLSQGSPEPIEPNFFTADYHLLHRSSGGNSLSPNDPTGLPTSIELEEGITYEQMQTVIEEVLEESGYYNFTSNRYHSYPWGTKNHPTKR
Description: Inhibition of NEK10 (unknown origin) at 1 uM relative to control.

Assay [6] addresses T3, Cytoplasmic tyrosine-protein kinase BMX (Homo sapiens) (UniProt P51813).
T3 sequence (whole entry): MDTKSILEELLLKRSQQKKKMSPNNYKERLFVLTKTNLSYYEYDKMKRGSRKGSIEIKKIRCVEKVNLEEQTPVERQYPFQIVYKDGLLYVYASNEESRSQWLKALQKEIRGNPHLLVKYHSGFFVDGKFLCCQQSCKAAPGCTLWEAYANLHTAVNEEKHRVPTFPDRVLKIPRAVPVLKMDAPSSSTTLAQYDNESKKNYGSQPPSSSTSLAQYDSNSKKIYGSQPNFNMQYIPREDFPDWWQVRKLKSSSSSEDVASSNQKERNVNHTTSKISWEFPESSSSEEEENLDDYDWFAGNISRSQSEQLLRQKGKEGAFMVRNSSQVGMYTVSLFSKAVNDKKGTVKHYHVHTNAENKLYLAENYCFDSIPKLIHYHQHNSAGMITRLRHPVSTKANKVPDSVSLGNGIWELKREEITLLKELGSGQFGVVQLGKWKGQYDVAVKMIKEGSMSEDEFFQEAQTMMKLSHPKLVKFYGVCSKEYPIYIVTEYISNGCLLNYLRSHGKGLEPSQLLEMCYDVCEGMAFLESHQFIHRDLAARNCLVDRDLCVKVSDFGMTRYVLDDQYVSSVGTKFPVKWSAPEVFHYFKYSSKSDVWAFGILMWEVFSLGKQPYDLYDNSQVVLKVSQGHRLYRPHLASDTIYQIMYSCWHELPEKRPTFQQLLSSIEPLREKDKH
Description: Inhibition of BMX (unknown origin) at 1 uM relative to control.

Sequence of Serine/threonine-protein kinase Nek4 (Homo sapiens) (P51957 whole entry, looked up): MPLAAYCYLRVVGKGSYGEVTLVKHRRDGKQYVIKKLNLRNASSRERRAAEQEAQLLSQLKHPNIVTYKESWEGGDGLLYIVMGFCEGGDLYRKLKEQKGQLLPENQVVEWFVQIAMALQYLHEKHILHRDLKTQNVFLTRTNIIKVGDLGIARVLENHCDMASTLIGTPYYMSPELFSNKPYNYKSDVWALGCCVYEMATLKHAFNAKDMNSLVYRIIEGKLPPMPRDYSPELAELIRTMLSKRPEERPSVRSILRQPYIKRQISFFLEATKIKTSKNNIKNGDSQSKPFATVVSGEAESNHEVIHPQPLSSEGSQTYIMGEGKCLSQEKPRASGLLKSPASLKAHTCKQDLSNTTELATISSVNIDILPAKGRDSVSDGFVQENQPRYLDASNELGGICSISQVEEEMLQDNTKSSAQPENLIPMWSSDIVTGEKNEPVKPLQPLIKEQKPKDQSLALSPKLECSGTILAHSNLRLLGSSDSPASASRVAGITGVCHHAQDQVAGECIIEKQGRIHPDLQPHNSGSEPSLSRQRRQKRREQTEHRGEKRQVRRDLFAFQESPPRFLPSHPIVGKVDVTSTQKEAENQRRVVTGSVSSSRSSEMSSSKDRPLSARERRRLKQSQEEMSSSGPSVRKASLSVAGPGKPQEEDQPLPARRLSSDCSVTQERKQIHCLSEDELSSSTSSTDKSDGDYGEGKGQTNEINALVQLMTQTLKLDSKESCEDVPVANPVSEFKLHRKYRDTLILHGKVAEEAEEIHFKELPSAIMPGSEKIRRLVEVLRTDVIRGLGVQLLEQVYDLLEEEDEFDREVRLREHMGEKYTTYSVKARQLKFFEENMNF

`Ic1ccc(Oc2cncc3sc(-c4nn[nH]n4)cc23)cc1`: the inhibition in assay [1] came out at 47.5%.
For `Cc1cc2cn[nH]c2cc1-c1cccc2c(N)c(C(N)=O)nnc12`, the inhibition in assay [2] came to 0%; in assay [3], 31%; in assay [4], 71%; in assay [5], 86%; in assay [6], 83%.
